Results as given in US12679878B2, “CRF2 receptor agonists and their use in therapy” (SANOFI, priority 2020, dated 2026).
Where two headings read alike, the source gives them in different places. Starred links: 1 amine or outer side, 2 acyl side, 3 side chain; linkers in the order of their positions; H or OH if unused. Non-standard residues stand in square brackets, D forms with d. Residues, ends and D or L forms follow the SMILES beside them. Groups on a side chain read outwards from the residue. *: point of attachment. C18 diacid = O=C(O)CCCCCCCCCCCCCCCCC(=O)*; γGlu = O=C(O)[C@H](CCC(=O)[*:2])N[*:1]; Palmitoyl = CCCCCCCCCCCCCCCC(=O)*; AEEA = NCCOCCOCC(=O)O; Aib = CC(C)(N)C(=O)O

Tests used:
human CRF2α receptor = target: T1, human CRF2α receptor (Homo sapiens, UniProt Q13324); assay: cAMP agonism at human CRF2 α receptor in TeloHEAC cells (Example 7); assay type: cell-based; settings: cAMP HTRF, TeloHEAC cells stably expressing human CRF2 α
T1 construct: expressed in transfected cells; host or cells: TeloHEAC
T1 sequence (Q13324 1-411): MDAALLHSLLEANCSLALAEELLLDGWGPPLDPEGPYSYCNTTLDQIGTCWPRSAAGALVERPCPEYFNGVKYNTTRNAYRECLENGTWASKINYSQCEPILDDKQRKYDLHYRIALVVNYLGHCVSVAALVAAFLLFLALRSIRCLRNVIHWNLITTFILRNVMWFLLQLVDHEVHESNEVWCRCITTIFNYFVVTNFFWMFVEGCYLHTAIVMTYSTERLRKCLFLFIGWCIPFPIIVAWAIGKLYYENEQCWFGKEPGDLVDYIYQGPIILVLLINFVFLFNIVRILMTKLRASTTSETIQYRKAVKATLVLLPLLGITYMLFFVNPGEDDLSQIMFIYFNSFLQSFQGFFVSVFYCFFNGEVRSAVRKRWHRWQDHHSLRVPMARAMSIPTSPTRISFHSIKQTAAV
Outline: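 HTRF ratio 665/620 nm, read 1 h after lysis reagents, reports cAMP. Cells: thawed stocks, 2000/well, 30 min RT with compound in HBSS, 20 mM HEPES, 0 or 0.1% HSA, 2 mM IBMX. Activity normalised to UCN2 1000 nM = 100%; EC50 from half-maximal activation.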

CRF1R receptor = target: T2, CRF1R receptor (Homo sapiens, UniProt P34998); assay: cAMP activity at anti-target CRF1R, CRF1R-overexpression CHO cell line (Example 9); assay type: cell-based; settings: CRF1R-overexpression CHO cell line; for Emax: read-out: Emax (%)
T2 construct: host or cells: CHO-K1 clone 2
T2 sequence (P34998 24-415): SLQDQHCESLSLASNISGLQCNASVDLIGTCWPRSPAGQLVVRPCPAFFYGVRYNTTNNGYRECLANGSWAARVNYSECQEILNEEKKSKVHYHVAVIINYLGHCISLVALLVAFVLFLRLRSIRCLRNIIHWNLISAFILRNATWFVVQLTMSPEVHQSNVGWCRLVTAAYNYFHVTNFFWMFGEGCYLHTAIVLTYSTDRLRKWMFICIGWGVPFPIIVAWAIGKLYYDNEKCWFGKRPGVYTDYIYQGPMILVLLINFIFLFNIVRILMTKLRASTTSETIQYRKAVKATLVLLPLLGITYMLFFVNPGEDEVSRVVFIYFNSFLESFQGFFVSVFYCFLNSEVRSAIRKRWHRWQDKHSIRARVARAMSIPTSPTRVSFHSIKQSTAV
Description: Cells were grown in a T175 culture flask placed at 37° C. to near confluence in medium (DMEM/10% FBS) and collected in 2 ml vials in cell culture medium containing 10% DMSO in a concentration of 10-50 million cells/ml. Each vial contained 1.8 ml cells. The vials were slowly frozen to −80° C. in isopropanol and then transferred in liquid nitrogen for storage. Prior to use, frozen cells were thawed quickly at 37° C. and washed (5 min at 900 rpm) with 20 ml cell buffer (1×HBSS; 20 mM HEPES; 0% or 0.1% HSA). Cells were resuspended in assay buffer (cell buffer plus 2 mM IBMX) and adjusted to a cell density of 1 million cells/ml. For measurement, 5 μl cells (final […]) and 5 μL of test compound were added to a 384-well plate, followed by incubation for 30 minutes at room temperature.
The CAMP content of cells was determined using a kit from Cisbio Corp. (cat. no. 62AM4PEC) based on HTRF (Homogenous Time Resolved Fluorescence). […] The percent activity value (E %) was calculated by setting 1000 nM of urocortin 2 (UCN2) as 100%.
A CRF1R-overexpression CHO cell line was used in this study.

[1] = 0% HSA, read-out: EC50 [nM], 0% HSA

Row | Structure (SMILES) | EC50 (human CRF2α receptor; [1]) [nM] | Emax (CRF1R receptor) [%] | EC50 (human CRF2α receptor; 0.1% HSA, read-out: EC50 [nM], 0.1% HSA) [nM] | EC50 (CRF1R receptor; 0% HSA) [nM]
1 | CCCCCCCCCCCCCCCC(=O)N[C@@H](CCC(=O)NCCCC[C@H](NC(=O)[C@H](CC(C)C)NC(=O)[C@H](CCCCN)NC(=O)[C@@H](NC(=O)[C@@H]1CCCN1C(=O)[C@H](NC(=O)[C@H](CC(=O)O)NC(=O)[C@H](CC(C)C)NC(=O)[C@H](CO)NC(=O)[C@H](CC(C)C)NC(=O)[C@@H](NC(=O)[C@@H](N)[C@@H](C)CC)C(C)C)C(C)C)[C@@H](C)O)C(=O)N[C@@H](CCC(N)=O)C(=O)N[C@@H](CCCCN)C(=O)N[C@@H](CC(C)C)C(=O)N[C@@H](CC(C)C)C(=O)N[C@@H](CCCCN)C(=O)N[C@@H](CCC(N)=O)C(=O)N[C@@H](CCC(=O)O)C(=O)N[C@@H](CCCNC(=N)N)C(=O)N[C@@H](CCC(N)=O)C(=O)N[C@@H](CCCNC(=N)N)C(=O)N[C@@H](CCCCN)C(=O)N[C@@H](CCC(=O)O)C(=O)NC(C)(C)C(=O)N[C@@H](CCC(=O)O)C(=O)N[C@@H](CCC(N)=O)C(=O)N[C@@H](C)C(=O)N[C@@H](CCC(=O)O)C(=O)N[C@@H](CCCCN)C(=O)N[C@@H](CC(N)=O)C(=O)N[C@@H](CCCCN)C(=O)N[C@@H](CCCNC(=N)N)C(=O)N[C@H](C(=O)N[C@@H](CC(C)C)C(=O)N[C@@H](CCC(=O)O)C(=O)N[C@@H](CCCNC(=N)N)C(=O)N[C@H](C(N)=O)C(C)C)[C@@H](C)CC)C(=O)O [compound 21] (H-IVLSLD[dV]PTKLK([γGlu-Palmitoyl])QKLLKQERQRKE[Aib]EQAEKNKRILERV-NH2; N-terminus assumed) | 0.02 | 59.2 | – | –
2 | CC[C@H](C)[C@H](NC(C)=O)C(=O)N[C@H](C(=O)N[C@@H](CC(C)C)C(=O)N[C@@H](CO)C(=O)N[C@@H](CC(C)C)C(=O)N[C@@H](CC(=O)O)C(=O)N[C@@H](C(=O)N1CCC[C@H]1C(=O)N[C@H](C(=O)N[C@@H](CCCCN)C(=O)N[C@@H](CC(C)C)C(=O)N[C@@H](CCCCNC(=O)COCCOCCNC(=O)COCCOCCNC(=O)CC[C@H](NC(=O)CCCCCCCCCCCCCCCCC(=O)O)C(=O)O)C(=O)N[C@@H](CCC(N)=O)C(=O)N[C@H](C(=O)N[C@@H](CC(C)C)C(=O)N[C@@H](CC(C)C)C(=O)N[C@@H](CCC(=O)O)C(=O)N[C@@H](CCC(N)=O)C(=O)N[C@@H](CCC(=O)O)C(=O)N[C@@H](CCCNC(=N)N)C(=O)N[C@@H](CCC(N)=O)C(=O)N[C@@H](CCC(=O)O)C(=O)NC(C)(C)C(=O)N[C@@H](CCC(=O)O)C(=O)N[C@@H](CCCNC(=N)N)C(=O)N[C@@H](CCC(=O)O)C(=O)N[C@@H](CCC(N)=O)C(=O)N[C@@H](C)C(=O)N[C@@H](CCC(=O)O)C(=O)N[C@H](C(=O)N[C@@H](CC(N)=O)C(=O)N[C@@H](CCCCN)C(=O)N[C@@H](CCC(N)=O)C(=O)N[C@H](C(=O)N[C@@H](CC(C)C)C(=O)N[C@@H](CCC(=O)O)C(=O)N[C@@H](CCC(N)=O)C(=O)N[C@H](C(N)=O)C(C)C)[C@@H](C)CC)[C@@H](C)O)[C@@H](C)CC)[C@@H](C)CC)C(C)C)C(C)C [compound 160] (Ac-IVLSLD[dV]PIKLK([AEEA-AEEA-γGlu-C18 diacid])QILLEQERQE[Aib]EREQAETNKQILEQV-NH2) | 8.56 | 20.8 | 28.9 | > 1000
